{
  "source": "patent US20090123389A1",
  "about": "“Methods for modulating Th17 cell development in the treatment and prevention of cellulite” (priority 2007, published 2009)",
  "key": {"CD4+ CD25− T cells [1]": {"system": "CD4+ CD25− T cells", "experiment": "DNA microarray transcriptional profile of T cells activated in Th17-priming conditions", "assay_type": "cell-based, mouse", "conditions": "6 hr; 10 nM; Th17-priming conditions"}, "CD4+ CD25− T cells [2]": {"system": "CD4+ CD25− T cells", "experiment": "Quantitative real-time PCR of AAR-associated genes in activated T cells", "assay_type": "cell-based, mouse", "conditions": "10 nM HF, within 4 hours of T cell activation", "protocol": "FIG. 12C is a graph depicting the results of quantitative real-time PCR performed on cDNA generated from resting naïve T cells (TN) or T cells activated for 4 hours in the presence of 10 nM MAZ1310 or 10 nM HF. Asns, Gpt2 or eIF4Ebp1 mRNA expression was normalized to Hprt levels and data are presented as mean values±SD in duplicate samples.\nQuantitative real-time PCR: T cells were activated as described above, collected at the indicated times and pellets were flash-frozen in liquid nitrogen. Total RNA was obtained by RNeasy (Quiagen, Valencia, Calif.) column purification per manufacturers instructions. RORγt expression was determined after reverse transcription using the message sensor kit (Ambion, Austin, Tex.) per manufacturers instructions and taqman primers and probe as described elsewhere (I. Ivanov, et al., Cell 126, 1121, 2006). Sybrgreen quantitative real-time PCR was performed on T cell RNA samples following reverse transcription via SuperScript II first-strand cDNA synthesis kit (Invitrogen, Carlsbad, Calif.). All PCR data was collected on an iCycler thermal cycler (Biorad, Hercules, Calif.). Primer sequences used for detecting stress response genes are listed below."}, "fibroblasts": {"system": "fibroblasts", "experiment": "Protein synthesis, proliferation and death of cultured fibroblasts", "assay_type": "cell-based"}, "[3]": {"system": "T cell-mediated inflammation", "conditions": "oxazolone-induced; cited from earlier work"}, "[4]": {"system": "unfolded protein response (Xbp-1 splicing)", "experiment": "Xbp-1 splicing / ER stress response in activated T cells"}},
  "data": [
    {"smiles": "O=C(CC1NCCCC1O)Cn1cnc2cc(Br)c(Cl)cc2c1=O", "note": "(racemic) [HF, 7-bromo-6-chloro-3-[3-(3-hydroxy-2-piperidinyl)-2-oxopropyl]-4(3H)-quinazolinone]", "values": [
      {"measurement": "Aars transcript fold increase, HF vs. MAZ1310", "setting": "CD4+ CD25− T cells [1]", "value": "2.6 ± 0.2", "unit": "fold"},
      {"measurement": "Aff1 transcript fold increase, HF vs. MAZ1310", "setting": "CD4+ CD25− T cells [1]", "value": "2.6 ± 0.3", "unit": "fold"},
      {"measurement": "Aldh18a1 transcript fold increase, HF vs. MAZ1310", "setting": "CD4+ CD25− T cells [1]", "value": "2.7 ± 0.2", "unit": "fold"},
      {"measurement": "Asns transcript fold increase, HF vs. MAZ1310", "setting": "CD4+ CD25− T cells [1]", "value": "7.1 ± 0.5", "unit": "fold"},
      {"measurement": "Atf3 transcript fold increase, HF vs. MAZ1310", "setting": "CD4+ CD25− T cells [1]", "value": "3.2 ± 0.5", "unit": "fold"},
      {"measurement": "Atf5 transcript fold increase, HF vs. MAZ1310", "setting": "CD4+ CD25− T cells [1]", "value": "8.9 ± 1.0", "unit": "fold"},
      {"measurement": "Cars transcript fold increase, HF vs. MAZ1310", "setting": "CD4+ CD25− T cells [1]", "value": "2.2 ± 0.3", "unit": "fold"},
      {"measurement": "Cd274 transcript fold increase, HF vs. MAZ1310", "setting": "CD4+ CD25− T cells [1]", "value": "2.0 ± 0.1", "unit": "fold"},
      {"measurement": "Cebpb transcript fold increase, HF vs. MAZ1310", "setting": "CD4+ CD25− T cells [1]", "value": "8.0 ± 0.2", "unit": "fold"},
      {"measurement": "Cebpg transcript fold increase, HF vs. MAZ1310", "setting": "CD4+ CD25− T cells [1]", "value": "3.1 ± 0.5", "unit": "fold"},
      {"measurement": "Chd2 transcript fold increase, HF vs. MAZ1310", "setting": "CD4+ CD25− T cells [1]", "value": "2.5 ± 0.5", "unit": "fold"},
      {"measurement": "Cldn12 transcript fold increase, HF vs. MAZ1310", "setting": "CD4+ CD25− T cells [1]", "value": "4.6 ± 0.5", "unit": "fold"},
      {"measurement": "Clic4 transcript fold increase, HF vs. MAZ1310", "setting": "CD4+ CD25− T cells [1]", "value": "2.8 ± 0.2", "unit": "fold"},
      {"measurement": "Cth transcript fold increase, HF vs. MAZ1310", "setting": "CD4+ CD25− T cells [1]", "value": "16.0 ± 1.6", "unit": "fold"},
      {"measurement": "Cxcl10 transcript fold increase, HF vs. MAZ1310", "setting": "CD4+ CD25− T cells [1]", "value": "2.1 ± 0.1", "unit": "fold"},
      {"measurement": "Ddit3 transcript fold increase, HF vs. MAZ1310", "setting": "CD4+ CD25− T cells [1]", "value": "5.0 ± 0.7", "unit": "fold"},
      {"measurement": "Eif4Ebp1 transcript fold increase, HF vs. MAZ1310", "setting": "CD4+ CD25− T cells [1]", "value": "5.3 ± 0.3", "unit": "fold"},
      {"measurement": "Gpt2 transcript fold increase, HF vs. MAZ1310", "setting": "CD4+ CD25− T cells [1]", "value": "16.7 ± 2.2", "unit": "fold"},
      {"measurement": "Herpud1 transcript fold increase, HF vs. MAZ1310", "setting": "CD4+ CD25− T cells [1]", "value": "2.7 ± 0.1", "unit": "fold"},
      {"measurement": "Icam1 transcript fold increase, HF vs. MAZ1310", "setting": "CD4+ CD25− T cells [1]", "value": "2.8 ± 0.3", "unit": "fold"},
      {"measurement": "Irf1 transcript fold increase, HF vs. MAZ1310", "setting": "CD4+ CD25− T cells [1]", "value": "2.6 ± 0.2", "unit": "fold"},
      {"measurement": "Lars transcript fold increase, HF vs. MAZ1310", "setting": "CD4+ CD25− T cells [1]", "value": "2.1 ± 0.0", "unit": "fold"},
      {"measurement": "Mpa2l transcript fold increase, HF vs. MAZ1310", "setting": "CD4+ CD25− T cells [1]", "value": "7.3 ± 1.7", "unit": "fold"},
      {"measurement": "Ncoa7 transcript fold increase, HF vs. MAZ1310", "setting": "CD4+ CD25− T cells [1]", "value": "3.2 ± 0.5", "unit": "fold"},
      {"measurement": "Nfkbiz transcript fold increase, HF vs. MAZ1310", "setting": "CD4+ CD25− T cells [1]", "value": "1.9 ± 0.3", "unit": "fold"},
      {"measurement": "Pck2 transcript fold increase, HF vs. MAZ1310", "setting": "CD4+ CD25− T cells [1]", "value": "7.4 ± 0.9", "unit": "fold"},
      {"measurement": "Pdcd1lg2 transcript fold increase, HF vs. MAZ1310", "setting": "CD4+ CD25− T cells [1]", "value": "2.5 ± 0.3", "unit": "fold"},
      {"measurement": "Phgdh transcript fold increase, HF vs. MAZ1310", "setting": "CD4+ CD25− T cells [1]", "value": "4.2 ± 0.3", "unit": "fold"},
      {"measurement": "Psat1 transcript fold increase, HF vs. MAZ1310", "setting": "CD4+ CD25− T cells [1]", "value": "2.6 ± 0.0", "unit": "fold"},
      {"measurement": "Psph transcript fold increase, HF vs. MAZ1310", "setting": "CD4+ CD25− T cells [1]", "value": "3.4 ± 0.3", "unit": "fold"},
      {"measurement": "Pvr transcript fold increase, HF vs. MAZ1310", "setting": "CD4+ CD25− T cells [1]", "value": "2.0 ± 0.1", "unit": "fold"},
      {"measurement": "Pycr1 transcript fold increase, HF vs. MAZ1310", "setting": "CD4+ CD25− T cells [1]", "value": "6.6 ± 0.4", "unit": "fold"},
      {"measurement": "Pycs transcript fold increase, HF vs. MAZ1310", "setting": "CD4+ CD25− T cells [1]", "value": "2.3 ± 0.1", "unit": "fold"},
      {"measurement": "Sars1 transcript fold increase, HF vs. MAZ1310", "setting": "CD4+ CD25− T cells [1]", "value": "2.3 ± 0.1", "unit": "fold"},
      {"measurement": "Sesn2 transcript fold increase, HF vs. MAZ1310", "setting": "CD4+ CD25− T cells [1]", "value": "2.3 ± 0.2", "unit": "fold"},
      {"measurement": "Slamf7 transcript fold increase, HF vs. MAZ1310", "setting": "CD4+ CD25− T cells [1]", "value": "2.1 ± 0.2", "unit": "fold"},
      {"measurement": "Slc1a4 transcript fold increase, HF vs. MAZ1310", "setting": "CD4+ CD25− T cells [1]", "value": "4.6 ± 0.4", "unit": "fold"},
      {"measurement": "Slc5a9 transcript fold increase, HF vs. MAZ1310", "setting": "CD4+ CD25− T cells [1]", "value": "5.7 ± 0.6", "unit": "fold"},
      {"measurement": "Slc7a3 transcript fold increase, HF vs. MAZ1310", "setting": "CD4+ CD25− T cells [1]", "value": "6.5 ± 0.9", "unit": "fold"},
      {"measurement": "Slc14a1 transcript fold increase, HF vs. MAZ1310", "setting": "CD4+ CD25− T cells [1]", "value": "6.6 ± 0.4", "unit": "fold"},
      {"measurement": "Trib3 transcript fold increase, HF vs. MAZ1310", "setting": "CD4+ CD25− T cells [1]", "value": "18.5 ± 8.5", "unit": "fold"},
      {"measurement": "Trim12 transcript fold increase, HF vs. MAZ1310", "setting": "CD4+ CD25− T cells [1]", "value": "4.9 ± 0.7", "unit": "fold"},
      {"measurement": "Vegfa transcript fold increase, HF vs. MAZ1310", "setting": "CD4+ CD25− T cells [1]", "value": "5.8 ± 0.5", "unit": "fold"},
      {"measurement": "Xist transcript fold increase, HF vs. MAZ1310", "setting": "CD4+ CD25− T cells [1]", "value": "2.1 ± 0.7", "unit": "fold"},
      {"measurement": "AAR-associated genes (Asns, Gpt2, eIF4Ebp1) mRNA by qPCR", "setting": "CD4+ CD25− T cells [2]", "value": "induced"},
      {"measurement": "concentrations that inhibit protein synthesis and cell proliferation of fibroblasts in culture", "setting": "fibroblasts", "value": "over 80 nM"},
      {"measurement": "doses that do not cause death of cultured fibroblasts", "setting": "fibroblasts; over a period of 5 days", "value": "up to 500 nM"},
      {"measurement": "T cell-mediated inflammation (delayed-type hypersensitivity)", "setting": "[3]", "value": "inhibits this T cell-mediated inflammation"},
      {"measurement": "expression of hallmark ER stress response genes (GRP78/BiP, calreticulin and others)", "setting": "[4]", "value": "did not induce"},
      {"measurement": "Xbp-1 splicing", "setting": "[4]; tunicamycin 1 μg/ml or 10 nM HF, 4 hours", "value": "without promoting Xbp-1 splicing"}
    ]}
  ]
}
